Values after ≈ are worked out from the molar mass of the structure shown.
Columns and labels:
[1] = Curcumin solubility in curcumin-emulsion mixtures, spectrophotometric (Example 3); type: physicochemical; details: excipient emulsion, aqueous with cosolvent or surfactant or cyclodextrin, thermodynamic from solid
Protocol: Preparation of curcumin-emulsion, curcumin-oil, and curcumin-buffer mixtures. […] After incubation, selected samples were immediately placed in an ice water and then used for the following experiments. In some experiments, the curcumin was mixed with bulk corn oil or with buffer (PBS) solution rather than an emulsion.
(§1) 1 mL of supernatant was then mixed with 5 mL chloroform, vortexed, and centrifuged at 1750 rpm for 10 min at ambient temperature. […] The two bottom chloroform layers were combined, and diluted to an appreciate concentration to be analyzed by a UV-VIS spectrophotometer at 419 nm (Ultraspec 3000 pro, GE Health Sciences, USA). A cuvette containing pure chloroform was used as a reference cell.

[2] = Curcumin oil-solubility in bulk corn oil by turbidity (Example 3); type: physicochemical; details: for dissolution of curcumin crystals in corn oil (turbidity versus time): 3 mg/mL
Protocol: In some experiments, the change in turbidity with time was measured at a fixed incubation temperature (30 or 100° C.) to determine the kinetics of isothermal dissolution.

[3] = Cross-polarized light microscopy of curcumin crystals in mixtures (Example 3); type: physicochemical
[4] = Curcumin solubility in curcumin-excipient emulsion mixtures of different droplet size (Example 4); type: physicochemical; details: for solubility at 10 min: aqueous with cosolvent or surfactant or cyclodextrin, thermodynamic from solid, after incubation at 100° C.; for amount of curcumin present within the emulsion: 30° C. for 30 min
Protocol: The resulting mixtures were then incubated at either 30° C. for 30 min or 100° C. for 10 min to simulate a salad dressing or a cooking sauce, respectively. After incubation, selected samples were immediately placed in an ice water and then used for the following experiments.
as §1, with “One millilitre” for “1 mL”, “rpm (≈940×G)” for “rpm”, “a” for “an appreciate”, “concentration suitable” for “concentration”, “analysed” for “analyzed”, “Sciences, Pittsburgh, Pa.,” for “Sciences,”

[5] = Cross-polarized light microscopy of curcumin crystals (Example 4); type: physicochemical
[6] = Rat feeding study: heptadecanoic acid and CoQ10 in duodenum, jejunum, ileum (Example 2); type: in vivo; details: for bioavailability in small intestinal tissues: encapsulated within digestible (corn oil) droplets with the smallest size, rat feeding study
Protocol: An animal feeding study was used to test the bioavailability of free fatty acids and CoQ10. Female Sprague Dawley rats (about 200-250 g) were purchased from Charles River Laboratories (Wilmington, Mass.). The Institutional Animal Care and Use Committee of the University of Massachusetts, Amherst, approved all animal procedures. Animals were housed in individual wire-bottomed cages in a windowless room with a 12-h light-dark cycle. After 10 days of adaptation, rats were fasted for 6 hours and 5 ml of emulsion was administered into a rat's stomach using a feeding needle (Roboz Surgical Instrument, Gaithersburg, Md.). Sample administration was conducted five times with 30 min intervals. Thirty min after the final administration, the rats were sacrificed by CO2 gas asphyxiation and blood samples were collected via cardiac puncture. Collected blood samples were allowed to clot for 30 min and then the serum layer was separated by centrifugation at 800 g for 20 min at 4° C. Serum was kept at −80° C. until analysis. The small intestine was flushed with phosphate buffered saline (PBS) five times, and the duodenum, jejunum, and ileum were collected. The intestine samples were kept at −80° C. until fatty acid composition and CoQ10 analyses. The in vivo experiment was carried out once, using three rats per sample analyzed.
Intestine extract was prepared by a method described previously by Tang, P. H., Miles, M. V., Miles, L., Quinlan, J., Wong, B., Wenisch, A., and Bove, K., “Measurement of reduced and oxidized coenzyme Q(9) and coenzyme Q(10) levels in mouse tissues by HPLC with coulometric detection”, Clinica Chimica Acta, 341(1-2):173-84 (2004), which is incorporated herein in its entirety. After thawing the intestine, approximately, 50 mg of intestine was weighed and 1 ml of ice cold 0.15M NaCl solution was added. Intestine sample (about 50 mg) was homogenized on ice and 50 μL of CoQ6 solution (Internal standard) and 25 μL of 1,4-benzoquione (5 mg/mL) solution was added to oxidize CoQ10. After 30 min. incubation at room temperature, 5 ml of 1-propanol was added and then mixed by vortexing for 1 min. Sample was centrifuged at 2,000 g for 5 min and the supernatant was filtered with a 0.1 μm disposable syringe filter (Celltreat, Shirley, Mass.). The oxidized CoQ10 concentration was standardized relative to the tissue weight.
Quantitative analysis was carried out using a high performance liquid chromatography system (Shimadzu Co. Japan) equipped with a pump (LC-10 AT), UV-visible detector (SPD-M10A), and controller (SCL-10A). A reverse phase C-18 column (ODS-2 Hypersil, 200×4.6 mm, 5 μm, Thermo scientific, Waltham, Mass.) was used. The mobile phase comprised of a mixture of 4.2 g sodium acetate anhydrous, 15 mL of glacial acetic acid, 15 mL 2-propanol, 830 mL methanol, and 140 ml hexane. The injection volume was 100 μl, the flow rate was 1 ml/min, UV detection was made at 275 nm and all analysis was performed at room temperature under isocratic conditions.
Lipids were extracted from samples (duodenum, jejunum, ileum) and blood using a standard method by Folch, J., Lees, M., and Stanley, G. H. S., “A simple method for the isolation and purification of total lipids from animal tissues”, Journal of Biological Chemistry, 226(1):497-509 (1957), which is incorporated herein in its entirety, and then the fatty acids were methylated prior to gas chromatography analysis as taught by Park, Y. and Pariza, M. W., “Evidence that commercial calf and horse sera can contain substantial amounts of trans-10,cis-12 conjugated linoleic acid”, Lipids, 33(8):817-19 (1998), which is incorporated herein in its entirety. Tridecenoic acid was used as an internal standard. Methyl esters of fatty acids were analyzed using a GC instrument (GC-17A, Shimadzu, Kyoto, Japan) fitted with a flame-ionization detector. […]

[7] = In vitro digestion model: bioaccessibility of β-carotene crystals mixed with emulsion or buffer (FIG. 6); type: in vitro ADME; details: β-carotene crystals mixed with oil-in-water emulsion (4% corn oil) versus buffer solution (PBS) without oil
Protocol: In this exemplary embodiment, β-carotene crystals were initially mixed with either an oil-in-water emulsion (containing 4% corn oil) or a buffer solution (PBS) containing no oil. The resulting mixtures were then passed through an in vitro gastrointestinal model that simulated the mouth, stomach, and small intestine. The bioaccessibility of β-carotene was determined by centrifuging the digesta resulting from a GIT model, and then measuring the fraction of β-carotene in the mixed micelle (middle phase). The GIT model used is described in Salvia-Trujillo, L.; Qian, C.; Martin-Belloso, O.; McClements, D. J., “Influence of Particle Size on Lipid Digestion and β-carotene Bioaccessibility in Emulsions and Nanoemulsions”, Food Chemistry, 141:1472-80 (2013), which is incorporated by reference herein in its entirety and for all purposes. In another instance, the method of these teachings also include using an animal feeding study to verify improvement of oral bioavailability when the predetermined pharmaceutical or nutraceutical is ingested with the food matrix. […]

[8] = Simulated gastrointestinal tract model: β-carotene bioaccessibility of nanoemulsions (Example 1); type: in vitro ADME; details: nanoemulsion, 0% corn oil (pure lemon oil system)
Protocol: Each β-carotene-enriched nanoemulsion was passed through a three-step simulated GIT model that consisted of a mouth, gastric, and small intestine phase. The particle size, charge, and microstructure of the samples were measured after incubation in each stage. […]
Small Intestine phase: Digesta samples (30 ml) obtained from the simulated gastric phase were placed in a beaker incubated in a water bath (37° C.) for 10 min and then adjusted to pH 7 with NaOH solution (0.05 or 1 M). […] The amount of free fatty acids released was calculated from the titration curves as described in Li, Y. and McClements, D. J., New Mathematical Model for Interpreting pH-Stat Digestion Profiles: Impact of Lipid Droplet Characteristics on in Vitro Digestibility”, Journal of Agricultural and Food Chemistry, 58:8085-92 (2010), which is incorporated herein in its entirety. The release of free fatty acids from the digestible oil (corn oil) was calculated by subtracting the FFA concentration determined at each time point for the pure lemon oil nanoemulsions from the FFA concentration determined for the nanoemulsions containing corn oil. […]

For `COc1cc(/C=C/C(=O)CC(=O)/C=C/c2ccc(O)c(OC)c2)ccc1O` [curcumin], the solubility at 60 min ([1]; incubation for 60 min at 30° C.) was about 54 µg/mL (≈ 147 µM), the solubility at 60 min ([1]; incubation for 60 min at 90° C. (so in the source)) was about 218 µg/mL (≈ 592 µM) and the “dissolution of curcumin crystals in corn oil (turbidity versus time)” value ([2]; held at 30° C.) was “only dissolved slowly”. The “dissolution of curcumin crystals in corn oil (turbidity versus time)” value ([2]; held at 100° C.) was “rapidly dissolved”, the solubility ([2]; bulk corn oil, oil or lipid, thermodynamic from solid, ambient temperature, estimated from turbidity at 3 and 4 mg/mL) was 3000 to 4000 µg/mL (≈ 8140 to 10900 µM) and the “dissolution of curcumin crystals in curcumin-emulsion mixtures” value ([3]; held at 100° C., any incubation time) was “rapidly and completely dissolved”. For the same compound, the “dissolution of curcumin crystals in curcumin-emulsion mixtures” value ([3]; incubated at 30° C. from 10 to 120 min) was “did not completely dissolve”, the solubility at 10 min ([4]; excipient emulsion, large droplets) was 230 µg/mL (≈ 624 µM) and the solubility at 10 min ([4]; excipient emulsions, small and medium droplets) was 270 to 280 µg/mL (≈ 733 to 760 µM). The “amount of curcumin present within the emulsion” value (from here on “amount”) ([4]; large emulsion) was about 88 ± 26 µg/mL, the “amount” value ([4]; medium emulsion) was about 104 ± 6 µg/mL and the “amount” value ([4]; small emulsion) was “around 66±1 μg/mL”. For the same compound, the “dissolution of curcumin crystals in curcumin-excipient emulsion mixtures” value ([5]; all mixtures held at 100° C.) was “rapidly and completely dissolved” and the “dissolution of curcumin crystals in curcumin-excipient emulsion mixtures” value ([5]; all mixtures incubated at 30° C.) was “did not completely dissolve”.
With `COC1=C(OC)C(=O)C(C/C=C(\C)CC/C=C(\C)CC/C=C(\C)CC/C=C(\C)CC/C=C(\C)CC/C=C(\C)CC/C=C(\C)CC/C=C(\C)CC/C=C(\C)CCC=C(C)C)=C(C)C1=O` [CoQ10, Coenzyme Q10] the “bioavailability in small intestinal tissues” value [6] was “highest”, the “absorption of CoQ10 in all regions of the small intestine” value ([6]; rat, in vivo) was “some absorption” and the “absorption of CoQ10 in duodenum” value ([6]; rat, in vivo) was “no significant differences”. The “absorption of CoQ10 in jejunum and ileum” value ([6]; rat, in vivo) was “significantly higher”.
In the case of `CC1=C(/C=C/C(C)=C/C=C/C(C)=C/C=C/C=C(C)/C=C/C=C(C)/C=C/C2=C(C)CCCC2(C)C)C(C)(C)CCC1` [β-carotene], the “bioaccessibility of β-carotene” value [7] is reported as “increases the bioaccessibility” and the “bioaccessibility of β-carotene” value [8] is reported as “≈ 5%”.
With `CCCCCCCCCCCCCCCCC(=O)O` [heptadecanoic acid, reference compound] the “bioavailability in small intestinal tissues” value [6] was “highest”, the “absorption of heptadecanoic acid in duodenum and jejunum” value ([6]; rat, in vivo) was “slightly more absorption” and the “absorption of heptadecanoic acid in duodenum, jejunum and ileum” value ([6]; rat, in vivo) was “significantly higher”.

— patent publication US20170035691A1, “FOOD MATRICES AND METHODS OF MAKING AND USING” (UNIVERSITY OF MASSACHUSETTS, priority 2014, published 2017)
